Measured values as given in patent publication US20020082241A1, “Adenosine as antithrombotic” (priority 2000, published 2002).

Columns and labels:
[1] = target: T1, platelet membrane receptor protein gpIIb/IIIa (Homo sapiens, UniProt P05106+P08514); test: gpIIb/IIIa binding assay with compound spotted on plate and labeled gpIIb/IIIa; details: concentration of the compound below 10 μg/ml; serial dilution 0 to 50 μg/ml; FIG. 5
T1 construct: platelet membrane receptor protein gpIIb/IIIa was purified from platelets; from tissue; host or cells: platelets
T1 sequence (P08514 32-887 limits assumed): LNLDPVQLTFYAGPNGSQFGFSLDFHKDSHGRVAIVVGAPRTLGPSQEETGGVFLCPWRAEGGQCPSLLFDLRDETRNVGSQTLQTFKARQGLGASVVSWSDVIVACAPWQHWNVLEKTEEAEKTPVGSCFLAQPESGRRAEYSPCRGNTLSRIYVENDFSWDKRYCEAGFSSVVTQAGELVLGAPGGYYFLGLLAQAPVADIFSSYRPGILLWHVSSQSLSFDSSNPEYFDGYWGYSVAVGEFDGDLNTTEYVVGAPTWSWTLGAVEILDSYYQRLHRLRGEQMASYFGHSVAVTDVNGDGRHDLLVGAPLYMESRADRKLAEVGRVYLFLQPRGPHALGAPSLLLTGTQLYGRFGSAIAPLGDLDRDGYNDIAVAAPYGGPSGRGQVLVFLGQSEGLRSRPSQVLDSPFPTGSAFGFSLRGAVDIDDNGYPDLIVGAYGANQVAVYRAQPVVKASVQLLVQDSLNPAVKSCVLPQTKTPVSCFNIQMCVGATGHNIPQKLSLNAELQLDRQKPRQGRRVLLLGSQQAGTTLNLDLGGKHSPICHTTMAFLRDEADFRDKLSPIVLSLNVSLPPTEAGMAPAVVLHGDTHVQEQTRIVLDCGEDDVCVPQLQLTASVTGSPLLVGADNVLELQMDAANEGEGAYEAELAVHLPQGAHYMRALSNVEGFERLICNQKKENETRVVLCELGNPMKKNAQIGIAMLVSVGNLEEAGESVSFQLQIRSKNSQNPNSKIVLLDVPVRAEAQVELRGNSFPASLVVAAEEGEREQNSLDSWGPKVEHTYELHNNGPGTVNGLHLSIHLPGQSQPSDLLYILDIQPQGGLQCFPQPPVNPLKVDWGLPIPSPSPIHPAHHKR
T1 sequence (P08514 891-1039 limits assumed): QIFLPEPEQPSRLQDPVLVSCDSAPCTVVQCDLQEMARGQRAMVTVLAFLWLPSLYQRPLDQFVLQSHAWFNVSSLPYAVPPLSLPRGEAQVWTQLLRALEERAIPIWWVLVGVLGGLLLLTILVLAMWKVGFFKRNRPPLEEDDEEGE
T1 sequence (P05106 27-788): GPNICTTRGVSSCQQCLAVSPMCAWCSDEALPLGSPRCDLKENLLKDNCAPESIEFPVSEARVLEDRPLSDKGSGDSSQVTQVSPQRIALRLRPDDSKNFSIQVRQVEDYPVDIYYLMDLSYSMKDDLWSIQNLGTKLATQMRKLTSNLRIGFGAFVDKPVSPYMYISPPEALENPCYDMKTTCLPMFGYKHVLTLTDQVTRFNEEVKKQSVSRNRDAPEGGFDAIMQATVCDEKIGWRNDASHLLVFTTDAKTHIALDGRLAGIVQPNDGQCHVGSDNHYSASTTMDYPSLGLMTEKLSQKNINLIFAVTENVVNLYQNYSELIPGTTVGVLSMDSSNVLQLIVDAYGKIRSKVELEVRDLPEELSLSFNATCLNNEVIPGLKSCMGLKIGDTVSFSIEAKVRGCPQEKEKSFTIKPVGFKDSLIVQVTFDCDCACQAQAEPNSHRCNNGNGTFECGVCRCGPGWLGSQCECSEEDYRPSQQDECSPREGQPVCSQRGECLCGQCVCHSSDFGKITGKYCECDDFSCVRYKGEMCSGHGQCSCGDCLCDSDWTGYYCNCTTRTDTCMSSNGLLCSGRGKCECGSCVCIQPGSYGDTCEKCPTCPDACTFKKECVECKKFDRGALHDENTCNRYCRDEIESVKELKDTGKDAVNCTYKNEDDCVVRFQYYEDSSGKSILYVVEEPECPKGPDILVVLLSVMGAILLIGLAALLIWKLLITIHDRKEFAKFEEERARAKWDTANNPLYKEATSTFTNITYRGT
Procedure: For conducting the target-binding assay, platelet membrane receptor protein gpIIb/IIIa was purified from platelets, and its purity was determined by SDS-PAGE and silver staining. The purified protein gpIIb/IIIa was labeled with biotin as described in the conventional protocol. The 120 collected samples were individually coated onto a 384-well plastic plate. The biotin-labeled protein gpIIb/IIIa was added to the sample-coated plastic plate and was incubated with the coated samples at room temperature for 30 minutes. Each well was then washed with TBST buffer for 3 times, to which the extravidin-conjugated alkaline phosphatase was added, and each well was further incubated for 30 minutes. The previous washing step was repeated and each well was then colored with substrate p-nitrophenyl phosphate. The absorption for each well at a wavelength of 405 nm was determined by an automatic ELISA reader (Dynax). […] The compound “adenosine” obtained from Example 4 was used as a standard for the characterization of each batch preparation of the compound. The compound, when purified, was collected, dried and used to verify its gpIIb/IIIa binding capacity. For conducting the binding assay, the compound was formulated into an aqueous solution, and a serial dilution for forming a final concentration of 0 to 50 μg/ml was made. […]

platelet aggregation = test: ADP-activated platelet aggregation assay; assay type: cell-based
Procedure: To assay the platelet aggregation-inhibiting activity of the compound, a regular ADP-activated platelet aggregation assay was performed. The reagents used for conducting the assay were purchased from Sigma. […] The maximal inhibition activity was about 85%, which occurs at the concentration of the compound from 10 to 15 μg/ml blood.

[2] = system: thrombus formation in mesenteric vein; test: thrombus formation in vivo in mesenteric vein of rats (electrical stimulation); details: rat
Procedure: The thrombus formation in vivo in mesenteric vein of rats was used for evaluating an effect of the compound on the inhibition of venous thrombosis. In brief, groups of 3 male Wistar-derived rats, each weighing 60±10 gm, were used for each dosage test. The rats were anesthetized with phenobarbital sodium (50 mg/kg, i.p.), and paralyzed with succinylcholine chloride (2 mg/rat, i.p.). A mesenteric loop and vein was then exposed and mounted on a constructed platform. The exposed area was superfused with a normal saline at 37° C. except during electrode placement and stimulation. With the aid of a dissecting microscope and micromanipulator, a monopolar platinum electrode was brought into and contact with the vein. […] The relative venous occlusion (a measured degree of thrombus formation) was determined as a percentage of venous diameter (0.36 to 0.3 8 mm) and was recorded at 10 seconds (baseline control score) and at 1 minute interval for 20 minutes. […] In the vehicle-treated animals, the 20-minute interval recorded values were averaged, which attains a value ranging from 45 to 55% of the interval vein diameter. Consequently, the antithrombic activity of the compound was calculated as % of inhibition relative to the vehicle-treated control animals. […]

[3] = target: T2, gpIIb/IIIa (binding of fibrinogen) (Homo sapiens, UniProt P05106+P08514); test: competitive ELISA for inhibition of the binding of fibrinogen to gpIIb/IIIa; details: samples 5-60 μg/ml; biotin-labeled fibrinogen 1.5 μg/ml; 37° C.; OD value; FIG. 8
T2 construct: The gpIIb/IIIa purified from platelet was coated on flat wells of a plastic 96-well plate; from tissue; host or cells: platelets
T2 sequence (P08514 32-887 limits assumed): as the sequence (P08514 32-887 limits assumed) above
T2 sequence (P08514 891-1039 limits assumed): as the sequence (P08514 891-1039 limits assumed) above
T2 sequence (P05106 27-788): as the sequence (P05106 27-788) above
Procedure: A competitive ELISA assay for analyzing that the binding of fibrinogen to gpIIb/IIIa is inhibited was performed for comparative analysis, where the compound, commercial adenosine (a product from Sigma, Cat. A-9251, Lot. 18H0295) and ReoPro® (abciximab) (10 mg/ml; produced by Eli Lilly for laboratory use only, Lot. 97F03, which is a monoclonal antibody and an antagonist against gpIIb/IIIa) were tested. The gpIIb/IIIa purified from platelet was coated on flat wells of a plastic 96-well plate. Samples of each of the test compounds were prepared in a concentration in a range of 5-60 μg/ml. A solution of biotin-labeled fibrinogen was prepared in a concentration of 1.5 μg/ml. Prior to addition to the wells, each of the samples were individually mixed with an equal volume of the biotinylated fibrinogen. The competitive binding reaction in the plate was performed at 37° C. for 2 hours. After another 2 hours for incubation, strepavidin-conjugated alkaline phosphatase was added to each well of the plate. A substrate solution containing p-nitrophenyl phosphate was then added to each well for coloring by a conventional way. The capability of each tested compound in the inhibition of the binding of fibrinogen to gpIIb/IIIa was measured and recorded as OD value.

[4] = acute toxicity in adult rats, single intravenous dose; assay type: in vivo; details: rat, single i.v. dose, up to approximately 70 mg/kg (69.55±5.65 mg/kg), necropsy Day 8
Procedure: The potential acute toxicity of the compound in adult rats when administered intravenously as a single dose was examined. Twenty animals were divided into five treatment groups of two males and two females each as follows: Group 1: vehicle control; Group 2: 1 mg of the compound/kg body weight of animal; Group 3: 10 mg of the compound/kg body weight of animal; Group 4: 50 mg of the compound/kg body weight of animal; and Group 5: 100 mg of the compound/kg body weight of animal. The tested article was reconstituted with 0.9% sodium chloride injection to provide 0.64±0.05 mg/kg (Group 2), 6.89±1.13 mg/kg (Group 3), 35.02±5.02 mg/kg (Group 4) and 69.55±5.65 mg/kg (Group 5). Animals were dosed on Day 1, and scheduled necropsies conducted on Day 8 included gross examination of organs and tissues, organ weight measurements, and tissue collection for potential histopathological examination. It was found in the compound treatment groups that there was no change in clinical observations, serum chemistry, hematology, gross examination, body weight and organ weight (absolute and relative) that could be attributed to the compound.

SMILES: Nc1ncnc2c1ncn2[C@@H]1O[C@H](CO)[C@@H](O)[C@H]1O [the compound, adenosine]
- binding to gpIIb/IIIa, % of the maximal binding [1]: 80%
- inhibition at 17.4 µg/mL (platelet aggregation; Platelet, 17.4 μg/ml, occurring from the 14th to 16th minutes, FIG. 6B, read-out: maximal inhibition activity on platelet aggregation (time course)): ~85%
- maximal inhibition activity on platelet aggregation (dose response) (platelet aggregation; at concentration from 10 to 15 μg/ml blood, FIG. 6A): about 85%
- antithrombic activity relative to vehicle treated group, i.v. ([2]; 400 μg/rat i.v. 5 minutes before stimulation, at 7, 11, 12, 13, 14, 15, 16, 17 and 19 minutes after electric stimulation, FIG. 7A): significance relative to the vehicle treated group
- antithrombic activity relative to vehicle treated group, oral ([2]; 4 mg/rat oral feeding 1 hour prior to stimulation, observed at 14, 15, 16, 17, 18 and 20 minutes, FIG. 7C): significant antithrombic activity
- inhibition of the binding of fibrinogen to gpIIb/IIIa, compared with ReoPro (abciximab) [3]: superior effect
- inhibition of the binding of fibrinogen to gpIIb/IIIa, the compound compared with commercial adenosine [3]: quite similar function
- acute toxicity [4]: No signs of overt toxicity
- acute toxicity ([4]; listed as adenosine): no acute toxicity
